Results published in PMC10196118, “Evidence for broad cross-reactivity of the SARS-CoV-2 NSP12-directed CD4^+ T-cell response with pre-primed responses directed against common cold coronaviruses” (Frontiers in Immunology, 2023).

Test system: pre-cultured PBMCs (NSP12-specific T cells)
Assay: IFN-γ ELISpot with single 15-mer peptides after 11–13 days in vitro peptide-pool T-cell expansion
Type: cell-based, human
Conditions: single NSP12 15-mer peptides; for peptide-specific response, donor HH-N12-18, post COVID-19 / peptide-specific response, donor HH-N12-34, post COVID-19 / peptide-specific response, donor HH-N12-35, post COVID-19 / peptide-specific response, donor HH-N12-36, post COVID-19 / peptide-specific response, donor HH-N12-37, post COVID-19: sample post COVID-19; for peptide-specific response, donor HH-N12-18, pre COVID-19 / peptide-specific response, donor HH-N12-34, pre COVID-19 / peptide-specific response, donor HH-N12-35, pre COVID-19 / peptide-specific response, donor HH-N12-36, pre COVID-19 / peptide-specific response, donor HH-N12-37, pre COVID-19: sample pre COVID-19

## IYNLLKDCPAVAKHD [compound 18]
  peptide-specific response, donor HH-N12-18, post COVID-19: 0
  peptide-specific response, donor HH-N12-18, pre COVID-19: 0
  peptide-specific response, donor HH-N12-34, post COVID-19: 0
  peptide-specific response, donor HH-N12-34, pre COVID-19: 0
  peptide-specific response, donor HH-N12-35, post COVID-19: 0
  peptide-specific response, donor HH-N12-35, pre COVID-19: 0
  peptide-specific response, donor HH-N12-36, post COVID-19: 0
  peptide-specific response, donor HH-N12-36, pre COVID-19: 0
  peptide-specific response, donor HH-N12-37, post COVID-19: 0.023
  peptide-specific response, donor HH-N12-37, pre COVID-19: 0

## KDCPAVAKHDFFKFR [compound 19]
  peptide-specific response, donor HH-N12-18, post COVID-19: 0
  peptide-specific response, donor HH-N12-18, pre COVID-19: 0
  peptide-specific response, donor HH-N12-34, post COVID-19: 0
  peptide-specific response, donor HH-N12-34, pre COVID-19: 0
  peptide-specific response, donor HH-N12-35, post COVID-19: 0
  peptide-specific response, donor HH-N12-35, pre COVID-19: 0
  peptide-specific response, donor HH-N12-36, post COVID-19: 0
  peptide-specific response, donor HH-N12-36, pre COVID-19: 0
  peptide-specific response, donor HH-N12-37, post COVID-19: 0
  peptide-specific response, donor HH-N12-37, pre COVID-19: 0

## KLFDRYFKYWDQTYH [compound 57]
  peptide-specific response, donor HH-N12-18, post COVID-19: 0
  peptide-specific response, donor HH-N12-18, pre COVID-19: 0
  peptide-specific response, donor HH-N12-34, post COVID-19: 0
  peptide-specific response, donor HH-N12-34, pre COVID-19: 0
  peptide-specific response, donor HH-N12-35, post COVID-19: 0
  peptide-specific response, donor HH-N12-35, pre COVID-19: 0
  peptide-specific response, donor HH-N12-36, post COVID-19: 0.029
  peptide-specific response, donor HH-N12-36, pre COVID-19: 0
  peptide-specific response, donor HH-N12-37, post COVID-19: 0
  peptide-specific response, donor HH-N12-37, pre COVID-19: 0

## LKYDFTEERLKLFDR [compound 55]
  peptide-specific response, donor HH-N12-18, post COVID-19: 0
  peptide-specific response, donor HH-N12-18, pre COVID-19: 0
  peptide-specific response, donor HH-N12-34, post COVID-19: 0
  peptide-specific response, donor HH-N12-34, pre COVID-19: 0
  peptide-specific response, donor HH-N12-35, post COVID-19: 0
  peptide-specific response, donor HH-N12-35, pre COVID-19: 0
  peptide-specific response, donor HH-N12-36, post COVID-19: 0
  peptide-specific response, donor HH-N12-36, pre COVID-19: 0
  peptide-specific response, donor HH-N12-37, post COVID-19: 0
  peptide-specific response, donor HH-N12-37, pre COVID-19: 0

## LLKTVQFCDAMRNAG [compound 38]
  peptide-specific response, donor HH-N12-18, post COVID-19: 0
  peptide-specific response, donor HH-N12-18, pre COVID-19: 0
  peptide-specific response, donor HH-N12-34, post COVID-19: 0
  peptide-specific response, donor HH-N12-34, pre COVID-19: 0
  peptide-specific response, donor HH-N12-35, post COVID-19: 0
  peptide-specific response, donor HH-N12-35, pre COVID-19: 0
  peptide-specific response, donor HH-N12-36, post COVID-19: 0
  peptide-specific response, donor HH-N12-36, pre COVID-19: 0
  peptide-specific response, donor HH-N12-37, post COVID-19: 0
  peptide-specific response, donor HH-N12-37, pre COVID-19: 0

## LTAESHVDTDLTKPY [compound 51]
  peptide-specific response, donor HH-N12-18, post COVID-19: 0
  peptide-specific response, donor HH-N12-18, pre COVID-19: 0
  peptide-specific response, donor HH-N12-34, post COVID-19: 0
  peptide-specific response, donor HH-N12-34, pre COVID-19: 0
  peptide-specific response, donor HH-N12-35, post COVID-19: 0
  peptide-specific response, donor HH-N12-35, pre COVID-19: 0
  peptide-specific response, donor HH-N12-36, post COVID-19: 0
  peptide-specific response, donor HH-N12-36, pre COVID-19: 0.05
  peptide-specific response, donor HH-N12-37, post COVID-19: 0
  peptide-specific response, donor HH-N12-37, pre COVID-19: 0
